# Experimental data reported in US6548553B2, “Styryl sulfone anticancer agents” (Temple University-of the Commonwealth System of Higher …, priority 1997, dated 2003).
# Experiments:
# Type in all cases: cell-based
# LnCaP cells = test: Comparison with cisplatin, Trypan blue viability after 72 hours
# Protocol: (§1) The killing effect of FR-20 on androgen-sensitive (LnCaP) and androgen insensitive (DU145) prostate tumor cells was compared to the effect of cisplatin (cis-diamminedichloroplatinum II), a widely used anti-prostate cancer agent. The cells were grown as in Example 26. FRI-20 or cisplatin was dissolved in DMSO and added to the cells at various concentrations. Viability was determined after 72 hours by the Trypan blue exclusion method. The concentration of FRI-20 required to completely kill LnCaP and DU145 cells was 2.5 μM and 5.0 μM, respectively. Under identical conditions, complete killing of LnCaP and DU145 cells by cisplatin required 25 μM and 15 μM concentrations, respectively.
# DU145 cells = test: as above; conditions: DU145, 72 hours, Trypan blue exclusion
# Protocol: as §1
# Hs 456.BT = test: GI50 growth inhibition, trypan blue cell count; conditions: Homo sapiens; benign skin lesion; 96 hours after addition
# Protocol: (§2) The human carcinoma cell lines listed in Table 5 below were purchased from ATCC and grown in an appropriate growth medium containing 10% fetal bovine serum (FBS) and antibiotics. The cells were plated at a cell density of 1.0×10^5 cells per […] in 6-well dishes. The cells were treated with various concentrations of (E)-fluorostyryl-4-bromobenzylsulfone 24 hours after plating in a total volume of 1 ml of medium using dimethylsulfoxide (DMSO) as a solvent for the compound. Control cells were treated with DMSO alone. The total number of viable cells was determined 96 hours after the addition of the compound by counting the cells in each well using a hemacytometer after trypan blue staining (viable cells exclude the stain). The counts were done in duplicate and the average was graphed in FIG. 8 as a percentage of the non-treated control group.
# (§3) Applying the same protocol as in Example 34, the GI50 for compound FRI-20 treatment of the cell lines in Table 6 was determined: […]
# SK-ov-3 = test: GI50 growth inhibition, trypan blue cell count; conditions: Homo sapiens, ovarian, 96 hours after addition
# Protocol: as §2, §3
# TE 354 = test: GI50 growth inhibition, trypan blue cell count; conditions: Homo sapiens; basal cell carcinoma; 96 hours after addition
# Protocol: as §2, §3
# BxPC-3 = test: GI50 growth inhibition, trypan blue cell count; conditions: Homo sapiens, pancreatic, 96 hours after addition
# Protocol: as §2, §3
# H209 = test: GI50 growth inhibition, trypan blue cell count; conditions: Homo sapiens, NCI-H209; lung, small cell; 96 hours after addition
# Protocol: as §2, §3
# Detroit 525 = test: GI50 growth inhibition, trypan blue cell count; conditions: Homo sapiens; Turner Syndrome skin fibroblast; 96 hours after addition
# Protocol: as §2, §3
# Daudi = test: GI50 growth inhibition, trypan blue cell count; conditions: Homo sapiens, Burkets lymphoma, 96 hours after addition
# Protocol: as §2, §3
# SK-MEL-3 = test: GI50 growth inhibition, trypan blue cell count; conditions: Homo sapiens, SK-MEL3; melanoma; 96 hours after addition
# Protocol: as §2, §3
# Hs 416.T = test: GI50 growth inhibition, trypan blue cell count; conditions: Homo sapiens; squamous papilloma; 96 hours after addition
# Protocol: as §2, §3
# Hs-802.T = test: GI50 growth inhibition, trypan blue cell count; conditions: Homo sapiens; squamous cell carcinoma; 96 hours after addition
# Protocol: as §2, §3
# MES-SA = test: GI50 growth inhibition, trypan blue cell count; conditions: Homo sapiens, uterine sarcoma, 96 hours after addition
# Protocol: as §2, §3
# Raji = test: GI50 growth inhibition, trypan blue cell count; conditions: Homo sapiens, Burkets lymphoma, 96 hours after addition
# Protocol: as §2, §3
# H80 = test: GI50 growth inhibition, trypan blue cell count; conditions: Homo sapiens; glioblastoma; 96 hours after addition
# Protocol: as §2, §3
# CEM = test: GI50 growth inhibition, trypan blue cell count; conditions: Homo sapiens, CCRF-CEM; acute lymphocytic lymphoma; 96 hours after addition
# Protocol: as §2, §3
# H1299 = test: GI50 growth inhibition, trypan blue cell count; conditions: Homo sapiens, NCI-H1299; lung, non-small cell; 96 hours after addition
# Protocol: as §2, §3
# N417 = test: GI50 growth inhibition, trypan blue cell count; conditions: Homo sapiens, lung, small cell, 96 hours after addition
# Protocol: as §2, §3
# OvCar-3 = test: GI50 growth inhibition, trypan blue cell count; conditions: Homo sapiens, ovarian, 96 hours after addition
# Protocol: as §2, §3
# HCT116 = test: GI50 growth inhibition, trypan blue cell count; conditions: Homo sapiens, HCT-116; cob-rectal; 96 hours after addition
# Protocol: as §2, §3
# A431 = test: GI50 growth inhibition, trypan blue cell count; conditions: Homo sapiens, A-431; epidermoid; 96 hours after addition
# Protocol: as §2, §3
# CAKI-1 = test: GI50 growth inhibition, trypan blue cell count; conditions: Homo sapiens, renal, 96 hours after addition
# Protocol: as §2, §3
# SW1088 = test: GI50 growth inhibition, trypan blue cell count; conditions: Homo sapiens, astrocytoma, 96 hours after addition
# Protocol: as §2, §3
# CAKI-2 = test: GI50 growth inhibition, trypan blue cell count; conditions: Homo sapiens, renal, 96 hours after addition
# Protocol: as §2, §3
# SKBR-3 and BT-20 cells = test: Trypan blue exclusion viability assay, breast tumor cell lines; conditions: 48 hours
# Protocol: (§4) The effect of FR-20 on the growth of normal and tumor cells of breast and prostate was examine utilizing nine cell lines: NIH/3T3 and HFL (normal fibroblast cell lines); MCF-7 and 361 ([…] breast tumor cell lines); BT-20, 435 and SKBR-3 ([…] breast tumor cell lines); LnCaP (androgen sensitive prostate tumor cell line); PC-3 and DU-145 (androgen insensitive prostate tumor cell line).
# (§5) The cells were grown as in Example 22, A. FR-20 was dissolved in DMSO and added to the cells at 2.5 μM and 5.0 μM concentration. To control cells, DMSO was added equivalent to the volume of solvent (DMSO) present at the highest concentration of the compound. The activity of the compound was evaluated after 48 hours by Trypan blue exclusion. […] Nearly 50% of SKBR-3 and BT-20 cells were dead at 2.5 μM and 75% at 5.0 μM concentration of the compound. […] FRI-20 had profound effect on the viability of androgen-dependent LnCaP prostate tumor cell line when compared to androgen-independent DU-145 and PC-3 prostate cell lines. At […] FRI-20, 80% of LnCaP, 40% of PC-3 and 20% of DU-145 cells were killed. At […] FRI-20, 72% of LnCaP, 47% of PC-3 and 40% of DU-145 were killed (FIG. 3B).
# [1] = tested on: MCF-7, HTB126, T470 and 435 cells; test: as above; conditions: 48 hours
# Protocol: as §4, §5
compound,measurement,setting,value
"O=S(=O)(/C=C/c1ccc(F)cc1)Cc1ccc(Cl)cc1 [Example 11, E-4-fluorostyryl 4-chlorobenzyl Sulfone]",concentration required to completely kill cells,"LnCaP cells; LnCaP, 72 hours, Trypan blue exclusion",2.5 µM
same,activity relative to cisplatin in killing prostate tumor cells,"LnCaP cells; both LnCaP and DU145, 72 hours",at least tenfold more active than cisplatin
same,concentration required to completely kill cells,DU145 cells,5.0 µM
same,GI50,Hs 456.BT,3000 nM
same,GI50,SK-ov-3,1500 nM
same,GI50,TE 354,4000 nM
same,GI50,BxPC-3,500 nM
same,GI50,H209,1000 nM
same,GI50,Detroit 525,3000 nM
same,GI50,Daudi,2000 nM
same,GI50,SK-MEL-3,2000 nM
same,GI50,Hs 416.T,4000 nM
same,GI50,Hs-802.T,4000 nM
same,GI50,MES-SA,1000 nM
same,GI50,Raji,2000 nM
same,GI50,H80,1500 nM
same,GI50,CEM,1000 nM
same,GI50,H1299,2000 nM
same,GI50,N417,1000 nM
same,GI50,OvCar-3,1500 nM
same,GI50,HCT116,1000 nM
same,GI50,A431,800 nM
same,GI50,CAKI-1,1500 nM
same,GI50,SW1088,2000 nM
same,GI50,CAKI-2,1000 nM
same,dead cells,SKBR-3 and BT-20 cells; 2.5 µM,~50%
same,dead cells,SKBR-3 and BT-20 cells; 5.0 µM,75%
same,viability at 2.5 µM,[1]; 2.5 µM,< 25%
same,viability at 5 µM,[1]; 5.0 µM,< 10%
